# Measurements as given in patent US6358515B2, “Hydroquinone derivatives” (Senju Pharmaceutical Co., Ltd., priority 1997, dated 2002).
# How the values were obtained:
# [1] = test system: Intraocular Pressure of Rabbit; test: Intraocular pressure lowering effect in rabbits (eye drop instillation, tonometer); format: in vivo, Male Dutch rabbits; details: for Intraocular pressure, 1 hr: 1 hr after instillation of 50 μl of 0.5% eye drops into the right eye; for Intraocular pressure, 1 hr / Intraocular pressure, 2 hr / Intraocular pressure, 3 hr / Intraocular pressure, 4 hr / Intraocular pressure, 0 hr: mean ± SD (n = 4-5); for Intraocular pressure, 2 hr: 2 hr after instillation of 50 μl of 0.5% eye drops into the right eye; for Intraocular pressure, 3 hr: 3 hr after instillation of 50 μl of 0.5% eye drops into the right eye; for Intraocular pressure, 4 hr: 4 hr after instillation of 50 μl of 0.5% eye drops into the right eye; for Intraocular pressure, 0 hr: initial value (0 hr) before instillation
# Procedure: The present compound was tested for its intraocular pressure lowering effect.
# Male Dutch rabbits of about 2.5 kg body weight were used in the test.
# Intraocular pressure was measured by means of a contact type tonometer (ALCON Applanation Pneumatonograph) after instillation of oxybuprocaine hydrochloride [Anelocal (registered trademark) eye drops: SENJU Pharmaceutical Co., Ltd.] into both eyes of the rabbits for local anesthesia.
# Eye drops were prepared each containing one of the test compounds at a concentration of 0.5% and 50 μl of it was instilled into the right eye. Intraocular pressure of both eyes was measured over time (0, 1, 2, 3, 4 hours). For analysis, Student t-test was conducted for the intraocular pressure measured at each time against the initial value.
# [2] = test system: Blood Pressure of SHR Rat; test: Effect on blood pressure of SHR rat (oral administration); format: in vivo, male SHR/Izm rats; details: mean ± SD (n = 4-5); for Blood pressure, 1 hr: 1 hr after 30 mg/kg orally; for Blood pressure, 2 hr: 2 hr after 30 mg/kg orally; for Blood pressure, 3 hr: 3 hr after 30 mg/kg orally; for Blood pressure, 4 hr: 4 hr after 30 mg/kg orally; for Blood pressure, 0 hr: initial value (0 hr) before administration
# Procedure: The present compound was tested for its blood pressure lowering effect.
# About 25-week old male SHR/Izm rats were used in the test.
# Initial value of the blood pressure of rat tail vein was measured with a non-invasive automatic manometer for small animals, UR-5000 (UEDA Seisakusho), and then one of the test compounds 30 mg/kg was orally administered. Blood pressure was measured in the same manner 1, 2, 3 and 4 hours after administration. For analysis, Student t-test was conducted for the blood pressure measured at each time against the initial value.
# [3] = Radical scavenging ability on the stable radical DPPH; details: for IC50: DPPH radical; for Radical scavenging activity (in words) / Radical scavenging rate (%): DPPH; for Radical scavenging activity (in words): 1-1000 μM; for Radical scavenging rate (%): 20 minutes, absorbance at 517 nm
# Procedure: The present compound was tested for its scavenging ability on a stable radical of 1,1-diphenyl-2-picrylhydrazide (DPPH).
# The test was carried out according to the method described by Blois, M. S., Nature, 181: 1199 ([…]).
# Each of the test compound was dissolved in purified water to prepare 10^−5-10^−2 M test solutions. To 300 μl each of the test solutions was added 2.7 ml of a […] solution of the stable radical, DPPH, in ethanol and stirred. The mixture was allowed to stand for 20 minutes, and absorbance at 517 nm was measured. Radical scavenging ability was determined for each of the test solutions according to the following equation.
# Radical scavenging rate (%)=(Absorbance of control−Absorbance of test solution[…])×100
SMILES,"Intraocular pressure, 1 hr [1]","Intraocular pressure, 2 hr [1]","Intraocular pressure, 3 hr [1]","Intraocular pressure, 4 hr [1]","Intraocular pressure, 0 hr [1] [mmHg]",melting point,"Blood pressure, 1 hr [2]","Blood pressure, 2 hr [2]","Blood pressure, 3 hr [2]","Blood pressure, 4 hr [2]","Blood pressure, 0 hr [2] [mmHg]",also measured
"COc1ccc(OC)c(N2CCN(CC(O)COc3ccc(O)cc3)CC2)c1.Cl.Cl (stereo not shown) [Example 25, 1-(4-Hydroxyphenoxy)-3-[4-(2,5-dimethoxyphenyl)-1-piperazinyl]propan-2-ol dihydrochloride]",26.8 ± 1.92^*2 mmHg,25.4 ± 1.82^*2 mmHg,28.6 ± 6.11 mmHg,29.6 ± 2.07 mmHg,31.6 ± 2.41,205 to 207 °C,–,–,–,–,–,–
COc1ccccc1N1CCN(CC(O)COc2cc(C)c(O)cc2C)CC1.Cl.Cl (stereo not shown),–,–,–,–,–,214 to 215 °C (dec.),–,–,–,–,–,–
"COc1ccccc1N1CCN(CC(O)COc2cc(C)c(O)c(C)c2)CC1.Cl.Cl (stereo not shown) [Example 17, 1-(3,5-Dimethyl-4-hydroxyphenoxy)-3-[4-(2-methoxyphenyl)-1-piperazinyl]propan-2-ol dihydrochloride]",25.4 ± 2.79^*1 mmHg,25.4 ± 2.88^*1 mmHg,27.0 ± 3.08 mmHg,28.6 ± 4.22 mmHg,30.0 ± 3.08,208 to 210 °C (dec.),214.8 ± 9.9^*1 mmHg,230.8 ± 13.0 mmHg,225.0 ± 13.0 mmHg,219.5 ± 10.6 mmHg,247.3 ± 23.2,–
"COc1ccccc1N1CCN(CC(O)COc2c(C)cc(O)c3ccccc23)CC1.Cl.Cl (stereo not shown) [Example 4, 1-(2-Methyl-4-hydroxynaphthoxy)-3-[4-(2-methoxyphenyl)-1-piperazinyl]propan-2-ol dihydrochloride]",17.3 ± 2.06^*3 mmHg,15.0 ± 3.74^*2 mmHg,15.8 ± 2.06^*3 mmHg,20.8 ± 2.22^*2 mmHg,26.5 ± 1.75,–,201.8 ± 7.7^*3 mmHg,207.8 ± 13.8^*2 mmHg,212.2 ± 3.8^*3 mmHg,212.2 ± 20.8^*1 mmHg,240.0 ± 8.5,IC50 [3]: 42 µM; Radical scavenging activity (in words) [3]: concentration-dependently exhibited a radical scavenging activity; Radical scavenging rate (%) ([3]; final concentration 1 μM): 6.7%; Radical scavenging rate (%) ([3]; final concentration 10 μM): 16.6%; Radical scavenging rate (%) ([3]; final concentration 30 μM): 37.7%; Radical scavenging rate (%) ([3]; final concentration 100 μM): 75.4%; Radical scavenging rate (%) ([3]; final concentration 1000 μM): 91.7%; Intraocular pressure lowering effect (in words) ([1]; 0.5% eye drops): a potent intraocular pressure lowering effect was observed since one hour after instillation; Time of peak intraocular pressure lowering effect after instillation ([1]; 0.5% eye drops): 2 h
COc1ccccc1N1CCN(CC(O)COc2ccc(O)cc2C)CC1.Cl.Cl (stereo not shown),–,–,–,–,–,192 to 194 °C (dec.),–,–,–,–,–,–
"COc1ccccc1N1CCN(CC(O)COc2ccc(O)c(C)c2C)CC1.Cl (stereo not shown) [Example 22, 1-(2,3-Dimethyl-4-hydroxyphenoxy)-3-[4-(2-methoxyphenyl)-1-piperazinyl]propan-2-ol hydrochloride]",–,–,–,–,–,228 to 230 °C (dec.),218.3 ± 11.3^*1 mmHg,231.0 ± 14.5 mmHg,236.5 ± 9.1 mmHg,241.0 ± 9.8 mmHg,247.0 ± 10.7,–
COc1ccccc1N1CCN(CC(O)COc2ccc(O)c(C)c2)CC1.Cl.Cl (stereo not shown),–,–,–,–,–,214 to 216 °C (dec.),–,–,–,–,–,–
"COc1ccccc1N1CCN(CC(O)COc2ccc(O)c(C(C)(C)C)c2)CC1.Cl (stereo not shown) [Example 20, 1-(3-tert-Butyl-4-hydroxyphenoxy)-3-[4-(2-methoxyphenyl)-1-piperazinyl]propan-2-ol hydrochloride]",22.2 ± 2.59^*1 mmHg,25.2 ± 0.84 mmHg,25.8 ± 2.59 mmHg,28.0 ± 1.73 mmHg,28.0 ± 3.81,170 to 172 °C,204.8 ± 16.9^*2 mmHg,215.0 ± 11.0^*2 mmHg,217.5 ± 15.2^*1 mmHg,216.3 ± 18.0^*1 mmHg,250.3 ± 14.3,–
"COc1ccccc1N1CCN(CC(O)COc2cc(C)c(O)c3ccccc23)CC1 (stereo not shown) [Example 2, 1-(3-Methyl-4-hydroxynaphthoxy)-3-[4-(2-methoxyphenyl)-1-piperazinyl]propan-2-ol]",21.8 ± 2.05^*1 mmHg,24.4 ± 1.82 mmHg,25.8 ± 2.39 mmHg,26.6 ± 2.88 mmHg,25.2 ± 1.30,–,204.0 ± 17.6 mmHg,192.2 ± 6.2^*1 mmHg,191.2 ± 14.6^*1 mmHg,187.8 ± 11.4^*1 mmHg,216.8 ± 18.0,IC50 [3]: 23 µM; Radical scavenging activity (in words) [3]: concentration-dependently exhibited a radical scavenging activity; Radical scavenging rate (%) ([3]; final concentration 1 μM): 7.8%; Radical scavenging rate (%) ([3]; final concentration 10 μM): 24.9%; Radical scavenging rate (%) ([3]; final concentration 30 μM): 61.0%; Radical scavenging rate (%) ([3]; final concentration 100 μM): 99.4%; Radical scavenging rate (%) ([3]; final concentration 1000 μM): 99.8%
COc1ccc(C)cc1N1CCN(CC(O)COc2ccc(O)cc2)CC1.Cl.Cl (stereo not shown),–,–,–,–,–,222 to 224 °C,–,–,–,–,–,–
COc1ccc(OC)c(N2CCN(CC(O)COc3ccc(O)cc3C)CC2)c1.Cl.Cl (stereo not shown),–,–,–,–,–,168 to 170 °C (dec.),–,–,–,–,–,–
COc1ccc(N2CCN(CC(O)COc3ccc(O)cc3)CC2)c(OC)c1.Cl.Cl (stereo not shown),–,–,–,–,–,213 to 215 °C (dec.),–,–,–,–,–,–
"COc1ccccc1N1CCN(CC(O)COc2cc(C)c(O)c(C)c2C)CC1 (stereo not shown) [Example 23, 1-(2,3,5-Trimethyl-4-hydroxyphenoxy)-3-[4-(2-methoxyphenyl)-1-piperazinyl]propan-2-ol]",20.8 ± 3.30^*1 mmHg,22.8 ± 3.40 mmHg,22.5 ± 3.42 mmHg,23.8 ± 3.30 mmHg,27.5 ± 3.42,163 to 165 °C,193.3 ± 15.4 mmHg,192.0 ± 10.8 mmHg,179.3 ± 7.8^*1 mmHg,192.0 ± 15.1 mmHg,204.0 ± 14.4,–
COc1ccccc1N1CCN(C(Oc2cc(C)c(O)c(OC)c2OC)C(C)O)CC1.Cl (stereo not shown),–,–,–,–,–,138 to 140 °C,–,–,–,–,–,–
